From publication PMC9240925, “Mechanistic study of the solubilization effect of basic amino acids on a poorly water-soluble drug” (RSC Advances, 2022)
In brackets after ≈: the same amount, converted by molar mass. Where two headings read alike, the source gives them in different places. One block for each molecule: values may come before it.

Key:
[1] = Differential scanning calorimetry, glass transition; format: physicochemical; conditions: for Tg, Gordon–Taylor (glass transition temperature): calculated by Gordon–Taylor equation with crystalline densities
Protocol: DSC was performed using a Q20 instrument V24.7 build 119 thermal analysis system with an intercooler system (Elstree, United Kingdom). The DSC system was calibrated and validated using indium (average melting temperature 156.36 ± 0.03 °C and enthalpy 29.81 ± 0.05 J g^−1). Powder samples of 1 to 5 mg were weighed in T-zero aluminum pans with T-zero lids (TA Instruments – A Division of Waters Ltd, Centennial Avenue, Elstree, Hertfordshire, United Kingdom). […] All results were analyzed using the TRIOS software for the phases transitions to determine the glass transition temperature (Tg) and melting point (Tm).
Indomethacin (as received) was analyzed in two heating cycles to produce an amorphous form. The first cycle was to measure the Tm of the crystalline form and the second cycle was for obtaining the Tg of amorphous indomethacin. The freeze-dried complexes and crystalline arginine, histidine and lysine were undergone one heating cycle to determine the Tg or Tm. The Tg described by Gordon–Taylor[39] was determined for drug–basic amino acids binary systems using the given equations below.
The Gordon–Taylor equation from composite glasses:3 [drawing 3]
T g(mix) is the glass transition temperature of a binary mixture, w1 and w2 are the weight fraction and Tg1 and Tg2 are the glass transitions temperature of individual compound in the mixture, K is typically considered an empirical constant:4 [drawing 4] where p1 and p2 are the powder densities of the single amorphous components. The crystalline densities of compounds (pIND = 1.379 g cm^−3pARG = 1.325 g cm^−3, pHIS = 1.412 g cm^−3 and pLYS = 1.237 g cm^−3) were used as approximation because small differences in density were reported between crystalline and amorphous form of small molecular compound.[9]

[2] = cited from earlier work
[3] = parameters: method as in ref 34 = [34]; Robert C. W. , Handbook of Chemistry and Physics , ed. R. C. Weast , CRC Press , Ohio , 55th edn, 1975; conditions: at 25 °C; cited from earlier work
[4] = parameters: method as in as printed in each cell: ref 60, 62, 63, 10, 64; conditions: cited from earlier work
[5] = parameters: method as in ref 42 = [42]; Archontaki H. A. Kinetic Study on the Degradation of lndomethacin in Alkaline Aqueous Solutions by Derivative Ultraviolet Spectrophotometry Analyst 1995 120 1 8; conditions: pH = 13; cited from earlier work
[6] = Drug content and chemical stability of freeze-dried mixtures by UV-Vis; format: physicochemical; conditions: with all amino acids, peak position at 320 nm
Protocol: The resulting filtrates were frozen for 24 hours at −80 °C and then freeze-dried for 48 hours (LTE Scientific Lyotrap Freeze Dryer, Great Britain, Greenfield, Oldham) with the system temperature of −51 ± 2 °C, pressure of around 0.1 mbar and the vacuum pump operated at a flow rate of 21 m^3 h^−1. The freeze-dried samples were then transferred into a plastic vacuum desiccator containing phosphorous pentoxide desiccant (P2O5) at ambient temperature (22 ± 2 °C). Indomethacin–sodium salt was also produced for comparison purposes.
The freeze-dried samples were prepared by dissolving 10 mg freeze-dried materials in water in a 10 mL volumetric flask. The solutions were then diluted to concentrations that fall within the calibration curve and analyzed at 320 nm. The percentage drug content[37] was calculated by eqn (2)2 [drawing 2]

[7] = parameters: method as in ref 34 = [34]; Robert C. W. , Handbook of Chemistry and Physics , ed. R. C. Weast , CRC Press , Ohio , 55th edn, 1975; conditions: cited from earlier work
[8] = Hydrotropic solubilization in amino acid solutions at controlled pH; format: physicochemical
Protocol: The pH of the solutions was adjusted by adding 0.1 M hydrochloric acid and monitored with a pH meter (OXOID limited, England). Excess indomethacin was then added to the amino acid solutions. The suspension was stirred with a magnetic stirrer for 24 hours at 30 ± 2 °C or 45 ± 2 °C until it is equilibrated followed by adjusting the pH again. The samples were then filtered via a membrane filter (syringe filter, 0.45 μm sterile).

[9] = pH-solubility study, shake flask method; format: physicochemical; conditions: mean ± SD n = 3
Protocol: The samples were then filtered using a membrane filter (syringe filter, 0.45 μm sterile). The filtered solutions were diluted within the range of calibration curves and analyzed spectrophotometrically at 260 nm.

[10] = Phase solubility diagrams of indomethacin in basic amino acid solutions and complexation efficiency; format: physicochemical; conditions: 30 °C
Protocol: After equilibration, the mixtures were centrifuged at 3750 rpm for 10 minutes (Beckman Coulter Allegra X-12 Series). […] The supernatant was filtered via a membrane filter (syringe filter, 0.45 μm sterile). The solutions were then diluted within the calibration curve range and analyzed spectrophotometrically at 260 nm. The precipitates (solid phase) were filtered again using filter paper (Whatman Grade 3). The solid phase was dried in an oven at 70 °C for 30 minutes, then examined using FTIR.
The complexation or solubilizing efficiency (CE)[36] was calculated from the slope of the linear drug–amino acid phase solubility (PS) diagram using the following eqn (1):1 [drawing 1] where K1:1 indicates to the stability constant, which is used to compare the affinity of drug to different amino acids. S0 refers to the intrinsic solubility, [drug–amino acid complex] is the concentration of dissolved drug–amino acid complex, [amino acid] is the concentration of dissolved free amino acid and slope is the slope of the phase solubility diagram.

[11] = Physical and chemical stability of indomethacin in solution (UV-Vis); format: physicochemical
Protocol: Spectra were collected using the UV Lambda software over the wavelength range of 400 nm–200 nm. The same solvent without the drug/amino acid was used as the reference. Samples were analyzed at identical conditions: slit width 1 nm, bandwidth 0.5 nm, pair cuvette cells 1 cm.
The results were recorded for samples stored over a week at ambient temperature (25 ± 1 °C). Chemical stability was confirmed by measuring the UV absorbance at 320 nm.

SMILES: N=C(N)NCCC[C@H](N)C(=O)O [Arginine, L-arginine]
Tg, Gordon–Taylor (glass transition temperature) [1]: 55.0 °C

SMILES: NCC(=O)O [Glycine, glycine]
pI (isoelectric point) [2]: 5.97

Tg, Gordon–Taylor (glass transition temperature) [1]: 37.0 °C
SMILES: N[C@@H](Cc1c[nH]cn1)C(=O)O [Histidine, L-histidine]
Water solubility [3]: 4.20 g/100 mL
pI (isoelectric point) [2]: 7.59
Tg, lit. (glass transition temperature) [4]: 37.0 (ref. [63]) °C

Chemical stability after freeze-drying [6]: chemically stable
Solubility improvement of ionized indomethacin compared to aqueous solubility at same pH without histidine ([8]; 0.35 M histidine solution, pH 7): ~8 fold
Solubility improvement of unionized indomethacin compared to intrinsic solubility in water ([8]; 1.5 M isoleucine solution, pH 1.2, 30 °C): ~25 fold
Solubility improvement of unionized indomethacin compared to intrinsic solubility in water ([8]; 1.6 M arginine solution, pH 1.2, 30 °C): ~11 fold
Solubility change of unionized indomethacin compared to intrinsic solubility in water ([8]; glycine solution, same concentration, pH 1.2, 30 °C): did not change
Tg, exp. (glass transition temperature) ([1]; DSC 5 °C/min, n = 3, IND melt quench, mixtures freeze-dried): 42.1 ± 0.5 °C
Tg, Gordon–Taylor (glass transition temperature) [1]: 42.1 °C
solubility at 24 h ([9]; 25 °C, simulated gastric fluid, thermodynamic from solid, 25 ± 2 °C, water pH 1.2, unionized form, read-out: Intrinsic solubility (S0)): 0.95 µM (≈ 0.34 µg/mL)
solubility at 24 h ([9]; 25 ± 2 °C, water pH 6.3, ionized and unionized forms, read-out: Aqueous solubility (S)): 64.2 µM (≈ 23 µg/mL)
solubility at 24 h ([9]; 30 °C, aqueous buffer, thermodynamic from solid, 30 ± 2 °C, water pH 6.3, ionized and unionized forms, read-out: Aqueous solubility (S)): 81.6 µM (≈ 29.2 µg/mL)
solubility at 24 h ([9]; 30 ± 2 °C, water pH 1.2, unionized form, read-out: Intrinsic solubility (S0)): 1.18 µM (≈ 0.422 µg/mL)
Phase solubility diagram type (Higuchi and Connors) ([10]; indomethacin in arginine solution above 250 mM): AN-type
Phase solubility diagram type (Higuchi and Connors) ([10]; indomethacin in arginine solution below 250 mM): AL-type
Phase solubility diagram type (Higuchi and Connors) ([10]; indomethacin in lysine solutions): Bs-type
Stability in solution (UV absorbance) ([11]; arginine solution, pH 10.3): gradually degraded after 24 hours
Stability in solution (UV absorbance) ([11]; basic amino acid solutions, pH 6.3 to 10.3, duration of experiment less than 24 hours): remains stable
Stability in solution (UV absorbance) ([11]; histidine solution, pH 7.5): stable over a week
Stability of indomethacin concentration in lysine aqueous solution on storage ([11]; lysine concentration between 27 and 37 mM (supersaturated, partial precipitation)): dropped after 1 day of storage
Stability of indomethacin concentration in lysine aqueous solution on storage ([11]; lysine concentrations below 27 mM, examined for ten days): appears stable
Stability in solution (UV absorbance) ([11]; lysine solution, pH 10): gradually degraded after 24 hours
SMILES: COc1ccc2c(c1)c(CC(=O)O)c(C)n2C(=O)c1ccc(Cl)cc1 [Indomethacin]
Water solubility [3]: 0.009 g/100 mL
Stability in solution of high pH [5]: rapidly hydrolyzed
log p (partition coefficient) [7]: 4.05
Tg, lit. (glass transition temperature) [4]: 42.0 (ref. [60]) °C

SMILES: CC[C@H](C)[C@H](N)C(=O)O [Isoleucine, L-isoleucine]
Water solubility [3]: 0.41 g/100 mL
log p (partition coefficient) [7]: −1.70
pI (isoelectric point) [2]: 6.04

SMILES: NCCCC[C@H](N)C(=O)O [Lysine, L-lysine]
Water solubility [3]: Very soluble
pI (isoelectric point) [2]: 9.47
Tg, Gordon–Taylor (glass transition temperature) [1]: 68.0 °C
Tg, lit. (glass transition temperature) [4]: 68.0 (ref. [63]) °C
